From US20250236597A1, “DEUTERATED BENZODIAZEPINE ANALOGS AND METHODS OF USE IN TREATING CANCER” (University of Cincinnati, priority 2022, published 2025)

What was measured:
Format in all cases: cell-based
[1] = tested on: A375 human melanoma cells; test: Cytotoxicity assay (CellTiter 96 AQueous One), A375 cells; conditions: A-375, 72 h, read-out: Cytotoxicity of deuterated compounds (IC50, μM)
Description: (§1) Cytotoxicity of DiD3, DiD5, QHD3, QHD5, KRMD3, and KRMD5 was assessed in A375 human melanoma cells, LN18 human glioma cells, and H1792 human NSCLC cells.
(§2) Each compound powder was weighed and dissolved in DMSO to a concentration of 40 mM. Dissolved compounds were stored at 4° C. Drug dilutions were prepared in phenol free medium as follows:
(§3) Cell culture process: Optimum cell number for each cell line was determined and the cell number giving about 1.0 OD value after one hour of incubation with the CellTiter 96® AQueous One Solution Cell Proliferation Assay reagent (Promega) was selected for cell proliferation experiments. On Day 1, cells were trypsinized, counted, and diluted to: A375 human melanoma cells: 30000 cells/mL (3000 cells/100 μL or 3000 cells/well); LN18 human glioma cells: 50000 cells/mL (5000 cells/100 μL or 5000 cells/well); and H1792 human NSCLC cells: 12000 cells/mL (1200 cells/100 μL or 1200 cells/well).
(§4) 100 μL of cell suspension was added to 96 well plates. Rows B to G and columns 2 to 11 were seeded with cells. Outer wells around the plate were filled with 100 μL phosphate buffered saline (PBS), except wells A2 to A6, which were filled with medium without cells. Cells were then incubated 24 hours and allowed to attach.
(§5) On Day 2: drug and controls were added to the plated cells as follows: background control: medium in wells A2 to A6 was aspirated and replaced with 100 μL fresh medium; control and test dilutions: medium was carefully aspirated and 100 μL of DMSO control or diluted drug was added to 5 consecutive wells in the same row. After drug addition, plates were returned to the incubator for 48 to 72 hours.
(§6) On Day 5 or 6:20 μL of CellTiter 96® AQueous One Solution Cell Proliferation Assay reagent (Promega) was added to each control or test well, incubated 1 to 2 hours, and then OD was acquired at 490 nm.
(§7) Data analysis: the average OD from the five wells containing medium and no cells (A2 to A6) was calculated and the value subtracted from each individual OD reading. The OD readings for each drug dilution was normalized to DMSO control, set as 100% cell viability/proliferation. Log drug concentration versus percentage viability was then plotted using GraphPad Prism.

[2] = tested on: LN18 human glioma cells; test: Cytotoxicity assay (CellTiter 96 AQueous One), LN18 cells; conditions: LN-18, 72 h, read-out: Cytotoxicity of deuterated compounds (IC50, μM)
Description: as §1, §2, §3, §4, §5, §6, §7

[3] = tested on: H1792 human NSCLC cells; test: Cytotoxicity assay (CellTiter 96 AQueous One), H1792 cells; conditions: NCI-H1792, 72 h, read-out: Cytotoxicity of deuterated compounds (IC50, μM)
Description: as §1, §2, §3, §4, §5, §6, §7

[4] = tested on: tumors; test: Activity summary of exemplary deuterated compounds (Table 1); conditions: Table 1 summary, result in words
[5] = tested on: human patient-derived cancer cell lines; test: Cytotoxicity against the tested cancer cell lines (overall statement); conditions: A375, LN18 and H1792 cells, result in words
Description: as §1, §2, §3
100 μL of cell suspension was added to 96 well plates. Rows B to G and columns 2 to 11 were seeded with cells. […]
Data analysis: the average OD from the five wells containing medium and no cells (A2 to A6) was calculated and the value subtracted from each individual OD reading. The OD readings for each drug dilution was normalized to DMSO control, set as 100% cell viability/proliferation. […]

| SMILES | IC50 [1] | IC50 [2] | IC50 [3] | Activity [4] | Cytotoxicity against the tested human patient-derived cancer cell lines [5] |
| --- | --- | --- | --- | --- | --- |
| [2H]C1([2H])N=C(c2ccccc2F)c2cc(C#C)ccc2N(C([2H])([2H])[2H])C1=O [KRMD5] | 0.63 µM | 2.67 µM | 2.52 µM | Active against tumors |  |
| [2H]C1([2H])N=C(c2ccccc2)c2cc(C#C)ccc2N(C([2H])([2H])[2H])C1=O [QHD5] | 0.46 µM | 2.51 µM | 1.98 µM | Active against tumors |  |
| [2H]C([2H])([2H])N1C(=O)CN=C(c2ccccc2)c2cc(C#C)ccc21 [QHD3] | 0.31 µM | 1.81 µM | 1.75 µM | Active against tumors |  |
| [2H]C([2H])([2H])N1C(=O)CN=C(c2ccccc2)c2cc(Cl)ccc21 [DiD3] |  |  |  | Inactive | non-cytotoxic |
| [2H]C1([2H])N=C(c2ccccc2)c2cc(Cl)ccc2N(C([2H])([2H])[2H])C1=O [DiD5] |  |  |  | Inactive | non-cytotoxic |
| [2H]C([2H])([2H])N1C(=O)CN=C(c2ccccc2F)c2cc(C#C)ccc21 [KRMD3] | 0.35 µM | 2.43 µM | 2.13 µM | Active against tumors |  |
